These results are taken from US12252522B2, “Myokines for treating cell proliferative and metabolic diseases and disorders” (Northwestern University, priority 2019, dated 2025).

One test has as its system cancer cells. In words: live cell PWS (D) and transcriptional heterogeneity of cancer cells surviving chemotherapy. The format is cell-based. From the text:
FIGS. 2A-2K. Four aspects of transcriptional heterogeneity regulation by chromatin D: (a) diversity (the relative dynamic range of expression; HT29 cells, 2445 genes), (b) intercellular heterogeneity, (c) intranetwork heterogeneity, and (d) amplification of changes in expression (ratio of changes in the expression rate of 800 significant genes induced by paclitaxel in A2780 ovarian cancer cells for high- vs. low-D cells). Predictions of a computational transcriptomics (multiscale analysis, MSA) model are shown as blue curves. (e) Chemotherapy leads to the survival of cancer cells with high D (middle-top panel; live cell PWS images of D; arrows: nuclei) and transcriptional (right-top) heterogeneity, while CPT agents (digoxin) decrease both (bottom). Left panels: MSA simulations of chromatin packing show a CPT-induced transition from a network to polymer-like packing. (f) Cells surviving chemotherapy treatment (paclitaxel (PAC); 48 h, A2780) have a larger global transcriptional space (single cell sequencing) while CPT (celecoxib) reduces it. (g) PWS images of HCT116 colon cancer cells after treatment with chemotherapy (oxaliplatin), CPT (celecoxib), and their combination. The addition of a CPT leads to >98% cancer cell death. […] Key: docetaxel (D), paclitaxel (P), oxaliplatin (0), digoxin (D), celecoxib (C), VPA (V), aspirin (A). […]

Test [1] relates to HCT116 colon cancer cells. Put plainly: PWS imaging of HCT116 cells after chemotherapy, CPT and their combination. The format is cell-based. To be noted: celecoxib (CPT) added to oxaliplatin.
Test [2] has as its system pancreatic ductal carcinoma PDX model. Put plainly: in vivo validation of CPT on pancreatic ductal carcinoma PDX model. To be noted: co-treatment gemcitabine 10 mg/kg + 9-ING-41 40 mg/kg, i.p. 3x a week.
Another test concerns HT29. In words: growth of HT29 cells treated with myostatin or metrnl and oxaliplatin. Format: cell-based, human. To be noted: for growth of colorectal cancer cell line: HT29, alone; for effect in combination with oxaliplatin: HT29, combination with oxaliplatin. From the text: FIGS. 6A-6C. Treatment of colon cancer cells lines with myokines and oxaliplatin. (a) HCT116 cells treated with myokines, oxaplatin, and combination of myokines and oxaplatin. (b) H29 cells treated with oxoplatin (ox), myostatin, and a combination of myostatin and oxaplatin. (c) H29 cells treated with oxoplatin (ox), metrnl, and a combination of metrnl and oxaplatin.
Next, we treated colorectal cancer cell lines HCT116 and HT29 with a myokine fraction and the specific myokines myostain and metrnl either by themselves or in combination with oxaliplatin. […] (See FIG. 6).

For the molecule `C[C@H]1O[C@@H](O[C@H]2[C@@H](O)C[C@H](O[C@H]3[C@@H](O)C[C@H](O[C@H]4CC[C@@]5(C)[C@H](CC[C@@H]6[C@@H]5C[C@@H](O)[C@]5(C)[C@@H](C7=CC(=O)OC7)CC[C@]65O)C4)O[C@@H]3C)O[C@@H]2C)C[C@H](O)[C@@H]1O` [digoxin], in the test with cancer cells, the “chromatin packing scaling D” value was “decrease both”.
Take `Cc1ccc(-c2cc(C(F)(F)F)nn2-c2ccc(S(N)(=O)=O)cc2)cc1` [celecoxib]: in test [1], the cancer cell death is listed as greater than 98%.
Regarding `Cn1cc(C2=C(c3coc4ccc(F)cc34)C(=O)NC2=O)c2cc3c(cc21)OCO3` [9-ING-41], in test [2], the “tumor volume relative to initial size” value is listed as < 4 % of the initial size.
myostatin [myostain]: in the test on HT29, the “growth of colorectal cancer cell line” value is given as “reduced the growth” and the “effect in combination with oxaliplatin” value is listed as “synergistic effect”.

B1: metrnl (protein, UniProt Q641Q3 46-311, looked up)
Meteorin-like protein: QYSSDRCSWKGSGLTHEAHRKEVEQVYLRCAAGAVEWMYPTGALIVNLRPNTFSPARHLTVCIRSFTDSSGANIYLEKTGELRLLVPDGDGRPGRVQCFGLEQGGLFVEATPQQDIGRRTTGFQYELVRRHRASDLHELSAPCRPCSDTEVLLAVCTSDFAVRGSIQQVTHEPERQDSAIHLRVSRLYRQKSRVFEPVPEGDGHWQGRVRTLLECGVRPGHGDFLFTGHMHFGEARLGCAPRFKDFQRMYRDAQERGLNPCEVGTD
notes: specific myokine
Take B1: in the test with HT29, the “growth of colorectal cancer cell line” value is reported as “reduced the growth” and the “effect in combination with oxaliplatin” value was “synergistic effect”.
